From patent US8071141B2, “Compositions for preventing or ameliorating multiple risk factor syndromes” (priority 2000, dated 2011)
Where a name gives a salt, the structure may show the parent alone. Read-outs that look alike come from different tables or passages of the source.

How the values were obtained:
[1] = system: spontaneously hypertensive rats (SHR); assay: Test Example 5: efficacy in spontaneously hypertensive rats; assay type: in vivo; conditions: licorice extract (Preparation Example 3) 300 mg/kg/day or enalapril maleate 20 mg/kg/day orally
Method: As a positive control, enalapril maleate, an antihypertensive agent, was used.
During the period, the mice had free access to food (CRF-1, Oriental Yeast Co.) and water.
On the day immediately preceding the start of treatment and on day 7, day 14, and day 21 of treatment, the blood pressure was measured at the tail artery using a non-invasive automatic hemomanometer (BP-97A, Softron Co., Ltd.). The measurement of blood pressure was performed before each administration of the sample.

KK-Ay mice [2] = assay: Test Example 3: preventing effect on diabetes mellitus in type II diabetic model mice-2; assay type: in vivo; conditions: pioglitazone 0.04% or licorice extract (Preparation Example 2) 0.2% in food
Excerpt: Regarding troglitazone, Noscal Tab.
As a positive control, the antidiabetic agent pioglitazone was used. As pioglitazone, Actos Tab. […] For the determination of blood glucose, the simple blood glucose test Glutest Ace (Sanwa Kagaku Kenkyusho Co., Ltd.) was used.

KK-Ay mice [3] = assay: Test Example 4: ameliorating effect on diabetes mellitus in type II diabetic model mice; assay type: in vivo; conditions: pioglitazone 0.02% or licorice extract (Preparation Example 2) 0.2% in food
Excerpt: As a positive control, the antidiabetic agent pioglitazone was used.
The mice had free access to food for 7 days. […] For the determination of blood glucose, the simple blood glucose test Glutest Ace (Sanwa Kagaku Kenkyusho Co., Ltd.) was used.

KK-Ay mice [4] = assay: Test Example 7: efficacy of turmeric extract in type II diabetic model mice; assay type: in vivo; conditions: pioglitazone 0.04% or turmeric extract (Preparation Example 5) 0.5% in food
Excerpt: (§1) As a positive control, the antidiabetic agent pioglitazone was used. […] As pioglitazone, Actos Tab.

KK-Ay mice [5] = assay: Test Example 9: efficacy of clove extract in type II diabetic model mice; assay type: in vivo; conditions: pioglitazone 0.02% or clove extract (Preparation Example 7) 0.5% in food
Excerpt: as §1

KK-Ay mice [6] = conditions: for Blood glucose: troglitazone 0.2% or licorice extract (Preparation Example 1) 0.15% in food
Method: As a positive control, the antidiabetic agent troglitazone was used.
Regarding troglitazone, Noscal Tab. 200 (200 mg of troglitazone in each tablet; Sankyo Co., Ltd.) was pulverized in an agate mortar and added to the normal food at a final concentration of 0.2%.
During the feeding period, small samples of blood were taken weekly from the mouse tail vein and the blood glucose was determined with the simple blood glucose test Novo Assist Plus (Novo Nordisk Pharma Ltd.).
At the end of the feeding period, the mice were fasted overnight and the abdomen was opened under ether anesthesia.
The blood was withdrawn from the abdominal aorta and the liver was excised and weighed. In addition, Sogo Ikagaku Kenkyusho Co., Ltd. was entrusted with analyses for serum total cholesterol (T-CHO), triglyceride (TG), free fatty acid (NEFA), GOT, GPT, LAP, cholinesterase (ChoE), total protein (TP-S), albumin (ALB-S), and A/G ratio.

[7] = end of 4-week feeding, overnight fast, troglitazone 0.2% or licorice extract 0.15% in food

Question: `CCOC(=O)[C@H](CCc1ccccc1)N[C@@H](C)C(=O)N1CCC[C@H]1C(=O)O` [Enalapril maleate, enalapril maleate] was tested. Which Blood pressure ([1]; Before start, tail artery) did it give?
Answer: The Blood pressure was 111 ± 2.5 mmHg.

Question: And the Blood pressure ([1]; Day 7, tail artery)?
Answer: Its Blood pressure is 118 ± 3.2 mmHg.

Question: What about the Blood pressure ([1]; Day 14, tail artery) of the same compound?
Answer: Its Blood pressure is 119 ± 3.4 mmHg.

Question: What about the Blood pressure ([1]; Day 21, tail artery) of the same compound?
Answer: The Blood pressure was 134 ± 3.1 mmHg.

Question: For `CCc1ccc(CCOc2ccc(CC3SC(=O)NC3=O)cc2)nc1` (stereo not shown) [Pioglitazone, pioglitazone], which Blood glucose (KK-Ay mice [2]; 1 week) is on record?
Answer: The Blood glucose was 163 ± 23 mg/dL.

Question: And the Blood glucose (KK-Ay mice [2]; 2 week)?
Answer: Its Blood glucose is 182 ± 9 mg/dL.

Question: And the Blood glucose (KK-Ay mice [2]; 3 week)?
Answer: The Blood glucose was 167 ± 18 mg/dL.

Question: And the Blood glucose (KK-Ay mice [2]; 4 week)?
Answer: The Blood glucose was 153 ± 21 mg/dL.

Question: What about the Blood glucose (KK-Ay mice [2]; Start) of the same compound?
Answer: Its Blood glucose is 151 ± 9 mg/dL.

Question: And the Blood glucose (KK-Ay mice [3]; Day 4)?
Answer: The Blood glucose was 168 ± 49 mg/dL.

Question: What about the Blood glucose (KK-Ay mice [3]; Day 7) of the same compound?
Answer: The Blood glucose was 143 ± 16 mg/dL.

Question: What about the Blood glucose (KK-Ay mice [3]; Start, hyperglycemic 15-week-old mice) of the same compound?
Answer: Its Blood glucose is 378 ± 36 mg/dL.

Question: And the Blood glucose (KK-Ay mice [4]; 1 week)?
Answer: The Blood glucose was 163 ± 23 mg/dL.

Question: And the Blood glucose (KK-Ay mice [4]; 2 week)?
Answer: The Blood glucose was 182 ± 9 mg/dL.

Question: What about the Blood glucose (KK-Ay mice [4]; 3 week) of the same compound?
Answer: Its Blood glucose is 166 ± 18 mg/dL.

Question: What about the Blood glucose (KK-Ay mice [4]; 4 week) of the same compound?
Answer: Its Blood glucose is 153 ± 21 mg/dL.

Question: And the Blood glucose (KK-Ay mice [4]; Start)?
Answer: The Blood glucose was 151 ± 9 mg/dL.

Question: And the Blood glucose (KK-Ay mice [5]; 1 week)?
Answer: The Blood glucose was 208 ± 21 mg/dL.

Question: What about the Blood glucose (KK-Ay mice [5]; 2 week) of the same compound?
Answer: Its Blood glucose is 192 ± 17 mg/dL.

Question: What about the Blood glucose (KK-Ay mice [5]; 3 week) of the same compound?
Answer: Its Blood glucose is 164 ± 16 mg/dL.

Question: What about the Blood glucose (KK-Ay mice [5]; Start) of the same compound?
Answer: Its Blood glucose is 156 ± 16 mg/dL.

Question: What does the source list for `Cc1c(C)c2c(c(C)c1O)CCC(C)(COc1ccc(CC3SC(=O)NC3=O)cc1)O2` (stereo not shown) [Troglitazone, troglitazone]?
Answer: Blood glucose (KK-Ay mice [6]; 1 week): 217 ± 74 mg/dL; Blood glucose (KK-Ay mice [6]; 2 week): 173 ± 40 mg/dL; Blood glucose (KK-Ay mice [6]; 3 week): 304 ± 77 mg/dL; Blood glucose (KK-Ay mice [6]; 4 week): 246 ± 51 mg/dL; Blood glucose (KK-Ay mice [6]; Start): 145 ± 11 mg/dL; NEFA (serum free fatty acid) (KK-Ay mice [6]; [7]): 1750 ± 302 μEq/L; T-CHO (serum total cholesterol) (KK-Ay mice [6]; [7]): 163 ± 7 mg/dL; TG (serum triglyceride) (KK-Ay mice [6]; [7]): 39 ± 14 mg/dL; A/G ratio (KK-Ay mice [6]; mouse, in vivo): 0.98 ± 0.05; ALB-S (albumin) (KK-Ay mice [6]; mouse, in vivo): 2.50 ± 0.12 g/dL; GOT (KK-Ay mice [6]; mouse, in vivo): 121 ± 26 IU/L; GPT (KK-Ay mice [6]; mouse, in vivo): 70.5 ± 26.2 IU/L; LAP (KK-Ay mice [6]; mouse, in vivo): 60.8 ± 6.1 IU/L; TP-S (total protein) (KK-Ay mice [6]; mouse, in vivo): 5.13 ± 0.17 g/dL; elevation in GOT compared with the non-treatment group (KK-Ay mice [6]; mouse, in vivo): 13%; ChoE (cholinesterase) (KK-Ay mice [6]; serum, end of 4-week feeding, troglitazone 0.2% or licorice extract 0.15% in food): 153 ± 9 IU/L
